Values after ≈ are worked out from the molar mass of the structure shown. Structures can show the parent of a compound that is named as a salt. Where two headings read alike, the source gives them in different places.
What was measured:
SARS-CoV2 [1] = assay: Drug added to Vero E6 cells immediately after SARS-CoV2 adsorption, indirect immunofluorescence after 24 hours; type: cell-based; settings: for inhibition: added after the initiation of infection
Experimental: (§1) In carrying out the in vitro experiments, vero E6 cells (an African green monkey kidney cell line) were infected with SARS-CoV2 at a multiplicity of infection of 0.5 for 1 hour. The cells were washed with PBS and then incubated in OPTI-MEM (Invitrogen) medium with or without various concentrations of the following drug candidates: Artemether (from BiopharmaRx) Hydroxychloroquine (from Sigma Aldrich), Atazanavir (from Sigma Aldrich), and Efavirenz (from Sigma Aldrich), Fosamprenavir Calcium (from Sigma Aldrich), Saquinavir (from Sigma Aldrich) and Remdesivir (from AOBIOUS, INC., USA)
(§2) Immunofluorescence staining was performed with SARS-CoV2-specific hyperimmune mouse ascitic fluid (HMAF) followed by anti-mouse fluorescein-coupled antibody.
The antiviral properties of artemether on SARS-CoV2 after the initiation of infection were studied. Vero E6 cells were infected with the virus and fresh medium supplemented with various concentrations of artemether was added immediately after virus adsorption. Infected cells were incubated for an additional 24 hours, after which the presence of virus antigens was analyzed by indirect immunofluorescence analysis. When artemether was added after the initiation of infection, there was a dramatic dose dependent decrease in the number of virus antigen-positive cells. […] A half-maximal inhibitory effect was estimated to occur at 16.5±1.0 μM artemether. […] (FIG. 2).

SARS-CoV2 [2] = assay: Drug pretreatment of Vero E6 cells prior to SARS-CoV2 infection, indirect immunofluorescence; type: cell-based
Experimental: as §1, §2
Experiments were carried out to determine the impact of artemether treatment on SARS-CoV2 infection. Permissive Vero E6 cells were pre-treated with various concentrations of artemether (0.1-50 μM) for 18-24 hours prior to virus infection. Cells were then infected with SARS-CoV2, and virus antigens were visualized by indirect immunofluorescence. For quantitative purposes, we counted the number of cells stained positive from three random locations on a slide. The average number of positively stained control cells was scored as 100% and was compared with the number of positive cells observed under various artemether concentrations. Pretreatment with 0.1, 1, 10, 20, 30, 40 and 50 μM artemether reduced infectivity by 4%, 12%, 32%, 45%, 63%, 92% and 100% respectively. Reproducible results were obtained from three independent experiments.

[3] = Dissolution test of Artemether/Lumefantrine-Remdesivir soft gel capsule; type: physicochemical; settings: 0.1 N. HCl with 3% Benzalkonium Chloride
From the text: The soft gel capsule of Artemether and Lumefantrine is comprised: Artemether 4 to 5% w/w, Lumefantrine 20-24% w/w, Remdesivir 18-20%, non-aqueous vehicle 15-20% w/w, preservative less than 1% w/w, viscosity imparting agent 15-20% w/w, suspending agent 1 to 5% w/w and emulsifying agent 1 to 3% w/w and a process to manufacture the said preparation comprising of the following steps as given in the above Patent. • (a) Preservatives and Solid Suspending Agents were milled and sifted. • (b) Non-aqueous vehicle, viscosity imparting agent and liquid suspending agents were filtered to remove the foreign particles • (c) Additional steps for mixing preservatives and suspending agents: • (i) Preservatives were dissolved in non-aqueous vehicle; • (ii) Emulsifying agents were warmed and/or melted and added into mixture in (i) above; • (iii) Viscosity imparting agent is added to mixture of (ii) above and the resultant mixture is stirred. • (iv) Suspending agent is added and mixed with the mixture in (iii) above; and • (v) The mixture of (a) above and (c) (iv) above was homogenized. • (d) The mixture in (v) above was the encapsulated in soft gelatin.
Drug dissolution testing is routinely used to provide critical in vitro drug release information for both quality control purposes to predict in vivo drug release profiles.
The media for dissolution test was 0.1 N. HCl with 3% Benzalkonium Chloride.

[4] = Peak Inhibitory Concentration (Threshold) after oral administration
Experimental: It is noted that the Peak Inhibitory Concentration (Threshold) of Artemether and Remdesivir were at 120 minutes after oral administration. The Peak Inhibitory Concentration (Threshold) of Lumefantrine was at 60 minutes after oral administration.

severe COVID-19 = settings: cited from earlier work
COVID-19 = settings: preliminary results, cited from earlier work
[5] = cited from earlier work
SARS-CoV2 [6] = assay: In-vitro experiments, time of drug addition relative to infection; type: cell-based; settings: added between 3 hours pre-infection and 3 hours after infection
Experimental: Less inhibition was detected when the drug was added after 12 hours post-infection (Our observation was consistent with the report by Agostini et al regarding GS-5734 (remdesivir) (Agostini M L, Andres E L, Sims A C, Graham R L, Sheahan T P, Lu X, Smith E C, Case J B, Feng J Y, Jordan R, Ray AS, Cihlar T, Siegel D, Mackman R L, Clarke M O, Baric R S, Denison M R. 2018. Coronavirus susceptibility to the antiviral remdesivir (GS-5734) is mediated by the viral polymerase and the proofreading exoribonuclease. mBio 9:e00221-18. https://doi.org/10.1128/mBio.00221-18.).
as §1

[7] = Severe acute respiratory syndrome coronavirus 2, Vero C1008, drug added after the initiation of infection, Vero E6 cells, read-out: concentration that reduced the infection by 50%
[8] = Severe acute respiratory syndrome coronavirus 2, Vero C1008, read-out: half-maximal inhibitory effect, drug added immediately after virus adsorption, Vero E6 cells, estimated
[9] = pretreatment 18-24 hours prior to virus infection, 1 μM
[10] = pretreatment 18-24 hours prior to virus infection, 10 μM
[11] = pretreatment 18-24 hours prior to virus infection, 20 μM
[12] = pretreatment 18-24 hours prior to virus infection, 40 μM
[13] = pretreatment 18-24 hours prior to virus infection, 0.1 μM
[14] = pretreatment prior to virus infection, 5 μM
[15] = pretreatment prior to virus infection, 15 μM
[16] = pretreatment prior to virus infection, 25 μM
[17] = Severe acute respiratory syndrome coronavirus 2, Vero C1008, drug added immediately after virus adsorption, Vero E6 cells, estimated, read-out: half-maximal inhibitory effect
[18] = pretreatment 18-24 hours prior to virus infection, 30 μM
[19] = pretreatment 18-24 hours prior to virus infection, 50 μM

Compound	IC50 (SARS-CoV2 [1]; [7])	IC50 (SARS-CoV2 [1]; [8])	reduced infectivity (SARS-CoV2 [2]; [9])	reduced infectivity (SARS-CoV2 [2]; [10])	reduced infectivity (SARS-CoV2 [2]; [11])	reduced infectivity (SARS-CoV2 [2]; [12])	reduced infectivity (SARS-CoV2 [2]; [13])	IC50 (SARS-CoV2 [1]; [17])	reduced infectivity (SARS-CoV2 [2]; [18])	reduced infectivity (SARS-CoV2 [2]; [19])	further results
C[C@H]1O[C@@H](O[C@H]2[C@@H](O)C[C@H](O[C@H]3[C@@H](O)C[C@H](O[C@H]4CC[C@@]5(C)[C@H](CC[C@@H]6[C@@H]5C[C@@H](O)[C@]5(C)[C@@H](C7=CC(=O)OC7)CC[C@]65O)C4)O[C@@H]3C)O[C@@H]2C)C[C@H](O)[C@@H]1O [digoxin, 3-[(3S,5R,8R,9S, 10S, 12R, 13S, 14S, 17R)-3-[(2R,4S,5S,6R)-5-[(2S,4S,5S,6R)-5-[(2S,4S,5S,6R)-4,5-dihydroxy-6-methyloxan-2-yl]oxy-4-hydroxy-6-methyloxan-2-yl]oxy-4-hydroxy-6-methyloxan-2-yl]oxy-12,14-dihydroxy-10, 13-dimethyl-1,2,3,4,5,6,7,8,9, 11, 12, 15, 16, 17-tetradecahydrocyclopenta[a]phenanthren-17-yl]-2H-furan-5-one]	~0.17 µM	0.17 ± 0.05 µM	–	–	–	–	–	–	–	–	inhibition (SARS-CoV2 [1]; 0.20-0.50 μM concentrations): 73%-97%
CC(C)(C)NC(=O)[C@@H]1C[C@@H]2CCCC[C@@H]2CN1C[C@@H](O)[C@H](Cc1ccccc1)NC(=O)[C@H](CC(N)=O)NC(=O)c1ccc2ccccc2n1 [saquinavir, Saquinavir]	–	96 ± 1 µM	5%	16%	35%	47%	–	–	–	–	reduced infectivity (SARS-CoV2 [2]; pretreatment 18-24 hours prior to virus infection, 60 μM): 78%; reduced infectivity (SARS-CoV2 [2]; pretreatment 18-24 hours prior to virus infection, 80 μM): 85%; reduced infectivity (SARS-CoV2 [2]; pretreatment 18-24 hours prior to virus infection, 100 μM): 100%; inhibition (SARS-CoV2 [1]; 120-240 μM concentrations): 63%-96%
COC(=O)N[C@H](C(=O)N[C@@H](Cc1ccccc1)[C@@H](O)CN(Cc1ccc(-c2ccccn2)cc1)NC(=O)[C@@H](NC(=O)OC)C(C)(C)C)C(C)(C)C [atazanavir sulfate]	~11 µM	–	15%	46%	92%	–	5%	11.5 ± 1 µM	–	–	reduced infectivity (SARS-CoV2 [2]; [14]): 28%; reduced infectivity (SARS-CoV2 [2]; [15]): 78%; reduced infectivity (SARS-CoV2 [2]; [16]): 100%; inhibition (SARS-CoV2 [1]; 40-100 μM concentrations): 86%-96%
CCN(CCO)CCCC(C)Nc1ccnc2cc(Cl)ccc12 (centres unmarked) [hydroxychloroquine sulfate]	–	–	18%	47%	63%	92%	6%	7.5 ± 1 µM	81%	100%	inhibition (SARS-CoV2 [1]; 40-100 μM concentrations): 75-96%; reduced the infection (SARS-CoV2 [1]; approximately 10 μM added immediately after virus adsorption, 24 hours): 63%
CCC(CC)COC(=O)[C@H](C)N[P@](=O)(OC[C@H]1O[C@@](C#N)(c2ccc3c(N)ncnn23)[C@H](O)[C@@H]1O)Oc1ccccc1 [Remdesivir, 2-ethylbutyl (2S)-2-[[[(2R,3S,4R,5R)-5-(4-aminopyrrolo[2,1-f][1,2,4]triazin-7-yl)-5-cyano-3,4-dihydroxyoxolan-2-yl]methoxy-phenoxyphosphoryl]amino]propanoate]	~2.4 µM	–	21%	63%	96%	–	7%	2.4 ± 1 µM	–	–	reduced infectivity (SARS-CoV2 [2]; [14]): 42%; reduced infectivity (SARS-CoV2 [2]; [15]): 84%; reduced infectivity (SARS-CoV2 [2]; [16]): 100%; inhibition (SARS-CoV2 [1]; 5-50 μM concentrations): 68%-96%; % Cumulative Drug Release ([3]; 60 minute time frame): 91.7%; % of Drug Release in a Dissolution Test ([3]; sample time 30 minute): 52.6%; % of Drug Release in a Dissolution Test ([3]; sample time 60 minute): 73.4%; % of Drug Release in a Dissolution Test ([3]; sample time 90 minute): 85.8%; % of Drug Release in a Dissolution Test ([3]; sample time 120 minute): 92.6%; time of Peak Inhibitory Concentration (Threshold) [4]: 120 min; stopped early because of adverse events (severe COVID-19; adult patients admitted to hospital for severe COVID-19, 237 enrolled): 18 patients; clinical benefits (severe COVID-19; adult patients admitted to hospital for severe COVID-19): not associated with statistically significant clinical benefits; stopped early because of adverse events (severe COVID-19; share of patients, adult patients with severe COVID-19): 12%; faster time to recovery than placebo (COVID-19; 1063 patients, p<0.001): 31%; median time to recovery (COVID-19; 1063 patients): 11 days; mortality rate (COVID-19; p=0.059 vs placebo): 8.0%; solubility in water [5]: 330 µg/mL (≈ 548 µM); solubility in water (words) [5]: sparingly soluble
COC(=O)NC(C(=O)NN(Cc1ccc(-c2ccccn2)cc1)C[C@H](O)[C@H](Cc1ccccc1)NC(=O)[C@@H](NC(=O)OC)C(C)(C)C)C(C)(C)C (stereo partly drawn) [Atazanavir, methyl N-[(1S)-1-{N′-[(2S,3S)-2-hydroxy-3-[(2S)-2-[(methoxycarbonyl)amino]-3,3-dimethylbutanamido]-4-phenylbutyl]-N′-{[4-(pyridin-yl)phenyl]methyl} hydrazinecarbonyl}-2.2-dimethylpropyl]carbamate]	–	–	–	–	–	–	–	–	–	–	inhibition by time of addition (SARS-CoV2 [6]): maximal inhibition
O=C1Nc2ccc(Cl)cc2[C@@](C#CC2CC2)(C(F)(F)F)O1 [efavirenz, Efavirenz]	–	51 ± 1 µM	9%	25%	48%	89%	3%	–	73%	100%	inhibition (SARS-CoV2 [1]; 80-200 μM concentrations): 73%-96%; IC50 (SARS-CoV2 [1]; Severe acute respiratory syndrome coronavirus 2, Vero C1008, read-out: concentration that reduced the infection by 50%, drug added after the initiation of infection, Vero E6 cells): ~55 µM
CC(C)CN(C[C@H](OP(=O)(O)O)[C@H](Cc1ccccc1)NC(=O)O[C@H]1CCOC1)S(=O)(=O)c1ccc(N)cc1 [fosamprenavir calcium, Fosamprenavir Calcium]	~58 µM	–	10%	28%	55%	91%	3%	58 ± 1 µM	73%	100%	inhibition (SARS-CoV2 [1]; 80-200 μM concentrations): 75%-96%; IC50 (SARS-CoV2 [1]; read-out: concentration that reduced the infection by 50%, drug added after the initiation of infection, Vero E6 cells): ~95 µM
CCCCN(CCCC)CC(O)c1cc(Cl)cc2c1-c1ccc(Cl)cc1/C2=C/c1ccc(Cl)cc1 (centres unmarked) [Lumefantrine]	–	–	–	–	–	–	–	–	–	–	time of Peak Inhibitory Concentration (Threshold) [4]: 60 min; solubility in water (words) [5]: insoluble
